Assays:
[1] = Liquid; for vapor or sublimation pressure: Closed cell (Static) method; for mass density: 298.15 K, 101.33 kPa, Vibrating tube method
[2] = excess molar enthalpy (molar enthalpy of mixing); xn = mol fraction of the nth substance listed; conditions: 303.15 K, 101 kPa, Liquid, Calvet calorimetry

CCN(CC)CCCN [N,N-diethylpropane-1,3-diamine]
[1]
Conditions | vapor or sublimation pressure [kPa]
273.15 K | 0.031
283.15 K | 0.073
293.15 K | 0.155
303.15 K | 0.31
313.15 K | 0.586
323.15 K | 1.053
333.15 K | 1.809
343.15 K | 2.987
353.15 K | 4.759
363.15 K | 7.346

Conditions | mass density [kg/m3]
[1] | 821.363

CCN(CC)CCCN [N,N-diethylpropane-1,3-diamine] + C1CCCCC1
[2]
Conditions | excess molar enthalpy [kcal/mol]
x1 = 0.1022 | 0.141
x1 = 0.2027 | 0.209
x1 = 0.3028 | 0.245
x1 = 0.3197 | 0.247
x1 = 0.3519 | 0.251
x1 = 0.3953 | 0.255
x1 = 0.407 | 0.257
x1 = 0.4449 | 0.257
x1 = 0.4943 | 0.254
x1 = 0.5061 | 0.255
x1 = 0.5307 | 0.248
x1 = 0.5351 | 0.248
x1 = 0.5595 | 0.243
x1 = 0.5741 | 0.239
x1 = 0.6073 | 0.228
x1 = 0.6523 | 0.21
x1 = 0.7017 | 0.187
x1 = 0.7997 | 0.131
x1 = 0.8696 | 0.0837

C1CCCCC1 [cyclohexane]
[1]
Conditions | vapor or sublimation pressure [kPa]
273.15 K | 3.726
283.15 K | 6.352
293.15 K | 10.36
303.15 K | 16.26
313.15 K | 24.65
323.15 K | 36.24
333.15 K | 51.85
343.15 K | 72.4
353.15 K | 98.87
363.15 K | 132.35

Conditions | mass density [kg/m3]
[1] | 774.1
